Structures are written as SMILES.

In assay [1] the test system is HAP1 MTAP-deleted cell line. The experiment in a line: SDMA in-cell western assay, HAP1 MTAP-deleted. Particulars: for IC50: Homo sapiens, HAP1, SDMA in-cell western, HAP1 MTAP-deleted; for MTAP intact/deleted ratio: SDMA in-cell western. It is filed as cell-based. In outline:
(§1)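 Compounds were tested in HAP1 cells differing only in MTAP status (endogenous expression versus null). Cellular SDMA levels were then measured by in-cell western, giving an IC50 in each background.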

In assay [2] the test system is HAP1 MTAP-intact cell line. In words: SDMA in-cell western assay, HAP1 MTAP-intact. To be noted: Homo sapiens, HAP1, SDMA in-cell western, HAP1 MTAP-intact; read-out: MTAP HAP1 intact IC50. It is filed as cell-based. In outline: as §1
For assay [3], the target named is T1, PRMT5 (Homo sapiens, UniProt O14744).
T1 construct: purchased Viva (custom protein)
T1 sequence (O14744 whole entry): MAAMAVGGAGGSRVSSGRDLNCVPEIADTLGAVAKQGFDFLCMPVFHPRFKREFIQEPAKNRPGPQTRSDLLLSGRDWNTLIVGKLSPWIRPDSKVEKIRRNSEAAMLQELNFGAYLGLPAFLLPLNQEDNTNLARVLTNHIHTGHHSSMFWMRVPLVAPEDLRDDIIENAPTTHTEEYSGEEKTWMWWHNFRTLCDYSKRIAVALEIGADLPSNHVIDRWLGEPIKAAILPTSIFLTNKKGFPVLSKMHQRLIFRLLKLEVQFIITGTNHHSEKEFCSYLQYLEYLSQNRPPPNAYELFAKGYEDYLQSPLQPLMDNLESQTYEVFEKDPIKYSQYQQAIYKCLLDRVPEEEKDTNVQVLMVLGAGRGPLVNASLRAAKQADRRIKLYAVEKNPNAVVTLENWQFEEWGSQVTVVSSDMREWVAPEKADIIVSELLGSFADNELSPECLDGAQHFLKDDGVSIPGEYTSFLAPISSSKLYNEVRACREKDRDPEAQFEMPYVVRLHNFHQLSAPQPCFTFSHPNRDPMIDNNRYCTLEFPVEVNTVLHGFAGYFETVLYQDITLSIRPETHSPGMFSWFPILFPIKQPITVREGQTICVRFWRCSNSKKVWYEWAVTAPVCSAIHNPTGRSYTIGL
T1 sequence (Q9BQA1 whole entry partner): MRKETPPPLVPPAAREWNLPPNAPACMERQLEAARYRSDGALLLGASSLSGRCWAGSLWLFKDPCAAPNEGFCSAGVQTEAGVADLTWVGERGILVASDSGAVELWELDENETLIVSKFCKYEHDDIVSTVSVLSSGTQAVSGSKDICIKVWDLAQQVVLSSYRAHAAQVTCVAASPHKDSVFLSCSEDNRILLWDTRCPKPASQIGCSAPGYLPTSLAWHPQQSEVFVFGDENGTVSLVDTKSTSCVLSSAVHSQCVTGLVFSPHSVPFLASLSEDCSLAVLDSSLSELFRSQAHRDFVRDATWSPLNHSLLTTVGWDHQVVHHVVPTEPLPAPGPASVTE
The experiment in a line: PRMT5 biochemical IC50 assay with MTA as cofactor. To be noted: PRMT5, MTA as cofactor; read-out: MTA IC50.

The target in assay [4] is T1, PRMT5. In words: PRMT5 biochemical IC50 assay with SAM as cofactor. Particulars: PRMT5, SAM as cofactor; read-out: SAM IC50.
The target of assay [5] is T1, PRMT5. The experiment in a line: PRMT5 biochemical IC50 assay with no cofactor. Particulars: PRMT5, no cofactor. From the text:
Table 1 indicates IC50 values (μM) against PRMT5 for exemplary compounds in the presence of SAM as cofactor, with no cofactor, and with MTA as cofactor, respectively (columns 4-6). […] Ki values can be calculated from the IC50 values as described in the Examples section. As detailed in the Examples section, for the assay performed in the presence of SAM, IC50=Ki×1.5 (Ki=IC50/1.5).

In assay [6] the test system is HAP1 MTAP-deleted cell line. In words: Viability assay, MTAP-deleted cell line. It is filed as cell-based. To be noted: Homo sapiens, read-out: HAP1 MTAP deleted viability. From the text: Table 1 additionally indicates IC50 values in a viability assay for the MTAP-deleted cell line (column 10), indicating the effect of treatment with compound on cell survival.
The mark [7] stands for this setting: read-out: HAP1 MTAP deleted IC50.
The mark [8] stands for this setting: IC50 ratio HAP1 MTAP-intact vs HAP1 MTAP-deleted.
Setting [9] is: HAP1, viability assay, MTAP-deleted cell line.
[10] abbreviates: IC50 ratio HAP1 MTAP-intact / HAP1 MTAP-deleted.
The mark [11] stands for this setting: HAP1, viability assay, HAP1 MTAP-deleted.
The mark [12] stands for this setting: read-out: HAP 1 MTAP deleted IC50.
[13] abbreviates: read-out: No Cofactor/ rel IC50.
Setting [14] is: HAP1, viability, HAP1 MTAP-deleted cell line.

Turning to `CCc1cc(NC(=O)C(=O)N2C[C@@H](C)CC[C@@H]2c2ccc3sc(CO)nc3c2)cnc1N` [Compound 1152, N-(6-amino-5-ethylpyridin-3-yl)-2-((2R,5S)-2-(2-(hydroxymethyl)benzo[d]thiazol-5-yl)-5-methylpiperidin-1-yl)-2-oxoacetamide], the IC50 in assay [1] (setting [7]) is under 100 nM; in assay [2], 100 to 1000 nM; in assay [3], under 50 nM; in assay [4] it was 50 to 500 nM; in assay [5] (read-out: No Cofactor/rel IC50), under 50 nM; in assay [6] (setting [9]), under 1000 nM. The MTAP intact/deleted ratio entry in assay [1] (setting [8]) is given as “A (an IC50 ratio greater than or equal to 10 fold)”.
On to `C[C@@H]1CC[C@@H](c2ccc(C(N)=O)cc2)N(C(=O)C(=O)Nc2cncc(C(N)=O)c2)C1` (racemic) [Compound 220, rac-5-{2-[(2R,5S)-2-(4-Carbamoylphenyl)-5-methylpiperidin-1-yl]-2-oxoacetamido}pyridine-3-carboxamide], for which the IC50 in assay [1] (setting [7]) is 100 to 1000 nM; in assay [2] it was over 1000 nM; in assay [3] it was under 50 nM; in assay [4], 50 to 500 nM; in assay [5] (read-out: No Cofactor/rel IC50), 50 to 500 nM; in assay [6] (setting [9]), over 10000 nM. In addition, in assay [1] (setting [10]), the MTAP intact/deleted ratio entry was “A (an IC50 ratio greater than or equal to 10 fold)”.
In the case of `COc1ncc(NC(=O)C(=O)N2C[C@@H](C)CC[C@@H]2c2ccc3sc(C)nc3c2)cc1C(N)=O` (single isomer, unassigned) [Compound 797], the IC50 in assay [1] (setting [7]) was under 100 nM; in assay [2] it was over 1000 nM; in assay [3], under 50 nM; in assay [4], 50 to 500 nM; in assay [5] (read-out: No Cofactor/rel IC50), under 50 nM; in assay [6] (setting [11]), under 1000 nM. Also, in assay [1] (setting [10]), the MTAP intact/deleted ratio result is reported as “A (an IC50 ratio greater than or equal to 10 fold)”.
Take `Cc1cc(NC(=O)C(=O)N2C[C@@H](C)CC[C@@H]2c2ccc3sc(CCN4CCOCC4)nc3c2)cnc1N` [Compound 1387, N-(6-amino-5-methylpyridin-3-yl)-2-((2R,5S)-5-methyl-2-(2-(2-morpholinoethyl)benzo[d]thiazol-5-yl)piperidin-1-yl)-2-oxoacetamide]: the IC50 in assay [1] (setting [12]) was under 100 nM; in assay [2] it was under 100 nM; in assay [3] it was under 50 nM; in assay [4] it was 50 to 500 nM; in assay [5] (setting [13]), under 50 nM; in assay [6] (setting [14]) it was under 1000 nM. The “MTAP intact/deleted ratio” value in assay [1] (setting [10]) is “B (an IC50 ratio greater than or equal to 3 fold but lower than 10 fold)”.
On to `C[C@@H]1CC[C@@H](c2ccc3nccn3c2)N(C(=O)C(=O)Nc2cncc(C(N)=O)c2)C1` (racemic) [Compound 234, rac-5-{2-[(2R,5S)-2-{Imidazo[1,2-a]pyridin-6-yl}-5-methylpiperidin-1-yl]-2-oxoacetamido}pyridine-3-carboxamide], for which the IC50 in assay [1] (setting [7]) is over 1000 nM; in assay [2], over 1000 nM; in assay [3], 50 to 500 nM; in assay [4], 50 to 500 nM; in assay [5] (read-out: No Cofactor/rel IC50), 50 to 500 nM; in assay [6] (setting [9]), over 10000 nM. Further, in assay [1] (setting [10]), the MTAP intact/deleted ratio entry was “C (an IC50 ratio of less than 3 fold)”.
For `CCc1cc(NC(=O)C(=O)N2C[C@@H](C)CC[C@@H]2c2ccc3sc([C@H]4C[C@@H](C)N(C)[C@@H](C)C4)nc3c2)cnc1N` [Compound 1261, N-(6-amino-5-ethylpyridin-3-yl)-2-((2R,5S)-5-methyl-2-(2-((2R,4r,6S)-1,2,6-trimethylpiperidin-4-yl)benzo[d]thiazol-5-yl)piperidin-1-yl)-2-oxoacetamide], the IC50 in assay [1] (setting [12]) is under 100 nM; in assay [2], under 100 nM; in assay [3] it was under 50 nM; in assay [4], under 50 nM; in assay [5] (setting [13]), under 50 nM; in assay [6] (setting [14]) it was under 1000 nM. Moreover, the “MTAP intact/deleted ratio” value in assay [1] (setting [10]) was “A (an IC50 ratio greater than or equal to 10 fold)”.
As for `Cc1cc(NC(=O)C(=O)N2C[C@H](C)CC[C@H]2c2cn[nH]c2)cnc1N` (single isomer, unassigned) [Compound 969], the IC50 is over 1000 nM in assay [1] (setting [12]); over 1000 nM in assay [2]; over 500 nM in assay [3]; over 500 nM in assay [4]; over 500 nM in assay [5] (read-out: No Cofactor/rel IC50); over 10000 nM in assay [6] (setting [9]). The MTAP intact/deleted ratio result in assay [1] (setting [10]) was “C (an IC50 ratio of less than 3 fold)”.
As for `CCc1cc(NC(=O)C(=O)N2C[C@@H](C)CC[C@@H]2c2ccc3sc(C[C@@H](C)N(C)C)nc3c2)cnc1N` [Compound 1198, N-(6-amino-5-ethylpyridin-3-yl)-2-((2R,5S)-2-(2-((R)-2-(dimethylamino)propyl)benzo[d]thiazol-5-yl)-5-methylpiperidin-1-yl)-2-oxoacetamide], the IC50 in assay [1] (setting [7]) was under 100 nM; in assay [2], under 100 nM; in assay [3], under 50 nM; in assay [4], 50 to 500 nM; in assay [5] (read-out: No Cofactor/rel IC50) it was under 50 nM; in assay [6] (setting [9]) it was under 1000 nM. In addition, the MTAP intact/deleted ratio entry in assay [1] (setting [8]) was “A (an IC50 ratio greater than or equal to 10 fold)”.
`COc1ncc(NC(=O)C(=O)N2C[C@@H](C)CC[C@@H]2c2ccc3sccc3c2)cc1C(N)=O` (single isomer, unassigned) [Compound 618]: the IC50 was under 100 nM in assay [1] (setting [12]); over 1000 nM in assay [2]; under 50 nM in assay [3]; under 50 nM in assay [4]; under 50 nM in assay [5] (read-out: No Cofactor/rel IC50); under 1000 nM in assay [6] (HAP1, viability IC50, MTAP-deleted cell line). Further, the MTAP intact/deleted ratio result in assay [1] (setting [10]) was “A (an IC50 ratio greater than or equal to 10 fold)”.
For the compound `COc1ncc(NC(=O)C(=O)N2C[C@H](C)CC[C@H]2c2cc(F)c(F)c(F)c2)cc1C(N)=O` (single isomer, unassigned) [Compound 742], the IC50 in assay [1] (setting [7]) was 100 to 1000 nM; in assay [2], over 1000 nM; in assay [3], under 50 nM; in assay [4], 50 to 500 nM; in assay [5] (read-out: No Cofactor/rel IC50), 50 to 500 nM; in assay [6] (setting [11]), 1000 to 10000 nM. Besides, in assay [1] (setting [10]), the MTAP intact/deleted ratio entry is “A (an IC50 ratio greater than or equal to 10 fold)”.
As to `CNC(=O)c1ccc([C@H]2CC[C@H](C)CN2C(=O)C(=O)Nc2cncc(C(N)=O)c2)s1` (single isomer, unassigned) [Compound 839], the IC50 is over 1000 nM in assay [1] (setting [7]); over 1000 nM in assay [2]; over 500 nM in assay [3]; over 500 nM in assay [4]; over 500 nM in assay [5] (read-out: No Cofactor/rel IC50); over 10000 nM in assay [6] (setting [11]). The MTAP intact/deleted ratio result in assay [1] (setting [10]) is “B (an IC50 ratio greater than or equal to 3 fold but lower than 10 fold)”.
For `CNC(=O)[C@@H]1CC[C@@H](c2ccccc2)N(C(=O)C(=O)Nc2cnc(N)c(C)c2)C1` (racemic) [Compound 249, 1-(2-((6-amino-5-methylpyridin-3-yl)amino)-2-oxoacetyl)-N-methyl-6-phenylpiperidine-3-carboxamide], the IC50 in assay [1] (setting [7]) was over 1000 nM; in assay [2] it was over 1000 nM; in assay [3], 50 to 500 nM; in assay [4], 50 to 500 nM; in assay [5] (read-out: No Cofactor/rel IC50) it was over 500 nM; in assay [6] (setting [9]) it was over 10000 nM. Also, the MTAP intact/deleted ratio entry in assay [1] (setting [10]) is “C (an IC50 ratio of less than 3 fold)”.
As for `COc1ncc(NC(=O)C(=O)N2C[C@@H](C)CC[C@@H]2C2CCCCC2)cc1C(N)=O` (single isomer, unassigned) [Compound 369], the IC50 in assay [1] (setting [7]) is 100 to 1000 nM; in assay [2], over 1000 nM; in assay [3], under 50 nM; in assay [4], 50 to 500 nM; in assay [5] (read-out: No Cofactor/rel IC50), 50 to 500 nM; in assay [6] (setting [9]), 1000 to 10000 nM. The MTAP intact/deleted ratio result in assay [1] (setting [10]) is recorded as “A (an IC50 ratio greater than or equal to 10 fold)”.
For the compound `CCc1cc(NC(=O)C(=O)N2C[C@@H](C)CC[C@@H]2c2ccc3cn(C4CC(C)(C)N(C)C(C)(C)C4)nc3c2)cnc1N` (racemic) [Compound 1295, N-(6-Amino-5-ethyl-3-pyridyl)-2-oxo-2-[rac-(2R,5S)-5-methyl-2-[2-(1,2,2,6,6-pentamethyl-4-piperidyl)indazol-6-yl]-1-piperidyl]acetamide], the IC50 in assay [1] (setting [12]) is under 100 nM; in assay [2], under 100 nM; in assay [3] it was under 50 nM; in assay [4] it was under 50 nM; in assay [5] (setting [13]), under 50 nM; in assay [6] (setting [14]), under 1000 nM. The “MTAP intact/deleted ratio” value in assay [1] (setting [10]) was “A (an IC50 ratio greater than or equal to 10 fold)”.
As for `CC(=O)Nc1ccc([C@@H]2CC[C@@H](C)CN2C(=O)C(=O)Nc2cnc(N)c(C)c2)s1` (single isomer, unassigned) [Compound 732], the IC50 in assay [1] (setting [7]) is 100 to 1000 nM; in assay [2], over 1000 nM; in assay [3] it was under 50 nM; in assay [4] it was 50 to 500 nM; in assay [5] (read-out: No Cofactor/rel IC50), 50 to 500 nM; in assay [6] (setting [11]), 1000 to 10000 nM. In addition, the MTAP intact/deleted ratio result in assay [1] (setting [10]) is given as “A (an IC50 ratio greater than or equal to 10 fold)”.

The values are drawn from US11999727B2 (Tango Therapeutics, Inc., priority 2020, dated 2024).
